Earlier results as cited in patent US20260183298A1, “VIRAL PROPHYLAXIS TREATMENT METHODS AND PRE-EXPOSURE PROPHYLAXIS KITS” (priority 2022, published 2026).

What was measured:
[1] = in vivo
[2] = tested on: HSV-1, HSV-2, HSV-8 (Kaposi's Sarcoma Virus), Vaccinia and Cowpox viruses
EHV = details: about 75% of the horses infected with EHV; all horses treated with valacyclovir

| SMILES | time to clear through the kidneys [1] | antiviral activity [2] | potency relative to reference antivirals ([2]; than the antiviral drugs acyclovir, ganciclovir and cidofovir) | progression to severe neurological disease (EHV) | Renal clearance (following a single 1 g dose) [mL/min] | Mean Cmax (in vivo) [ng/mL] | bioavailability (overall) [%] | metabolism by cytochrome p450 (cytochrome p450) |
| --- | --- | --- | --- | --- | --- | --- | --- | --- |
| CC(=O)OCC(CCn1cnc2cnc(N)nc21)COC(C)=O [Famciclovir, famciclovir] | less than 24 hours | – | – | – | – | – | – | – |
| Cc1cn([C@H]2C[C@H](O)[C@]3(CO)C[C@H]23)c(=O)[nH]c1=O [N-MCT, N-methanocarbathymidine] | – | inhibits | equally or more potent | – | – | – | – | – |
| CC(C)[C@H](N)C(=O)OCCOCn1cnc2c(=O)[nH]c(N)nc21 [Valacyclovir, valacyclovir] | less than 24 hours | – | – | none progressed to severe neurological disease | 255 | 830 to 5650 | 54.5 | not metabolized by cytochrome p450 |
